For test [1], the system named is HepG2 cells. The experiment in a line: Autophagy flux assay using PtfLC3 (GFP-RFP-LC3) reporter protein. The format is cell-based, human. The conditions noted are these: 500 nM, 24 h, transfected HepG2. The text has this:
The development of a new vector called ptf-LC3B leading to the expression of a double-tagged GFP-RFP-LC3B protein has helped in the study of autophagy flux and this recombinant protein allows to distinguish between autophagosomes (in yellow) and autophagolysosomes (in red).^33 The pGFP-mRFP-LC3B (ptf-LC3) vector was purchased from Addgene (21074). Briefly, plasmid present in the bacterial pellet was isolated according to manufacturer's instruction (GenElute™ Plasmid Miniprep Kit-Sigma-Aldrich). HepG2 cells were transfected transiently with tandem repeats of GFP-RFP tagged LC3 (ptfLC3) using the Lipofectamine LTX and Plus Reagent Kit (Invitrogen, USA) according to manufacturer's protocol. Briefly, PtfLC3 vector Opti-MEM transfection medium (Solution A) was mixed with Lipofectamine reagent dissolved in Opti-MEM transfection medium (Solution B) and incubated for 45 min at room temperature. […]
Quantitative analysis of autophagy flux using tandem GFP-RFP LC3 reporter protein. […] FIG. 29 is a bar diagram showing the quantitative analysis of autophagy induced by Uttroside B in HepG2 cells. HepG2 cells were transfected transiently with plasmid encoding GFP-RFP-LC3 as described previously and the punctae observed were counted and plotted as a histogram. The next attempt was to verify and quantitate the autophagic flux induced by Uttroside B using a tandem GFP-RFP LC3 reporter protein. […]

The subject of test [2] is LC3 in HepG2 cells. The experiment in a line: Autophagy flux (LC3I to LC3II conversion) with Bafilomycin. The class given is cell-based, human. The conditions noted are these: Uttroside B 500 nM + Bafilomycin 10 nM, 24 h. The method, then: Concentration dependent effect of BafilomycinAl on the endogenous conversion of LC3I to LC3II in HepG2 cells. Cells were treated with Bafilomycin Al at different concentration and the whole cell lysate was resolved on a 15% gel and immunoblotted against LC3 antibody. Uttroside B is an autophagy inducer in HepG2 cells as analysed by autophagy flux using Bafilomycin Al. […] The increase in LC3 II could not be considered as a fool proof of autophagic induction because a blockage in any step leading from autophagosome maturation to its fusion with lysosomes could cause its accumulation. So, the effect of Uttroside B in HepG2 cells were analyzed for autophagy flux, a more accurate read out of autophagy on co-treatment with Bafilomycin, an autophagy-lysosome inhibitor. Bafilomycin A, blocks autophagy by blocking the fusion of autophagosome with lysosome which cause the accumulation of autophagosome or LC3. First, the concentration of Bafilomycin Al required for saturating the blockage of autophagy-lysosome fusion was standardized. The efficacy of Bafilomycin Al, in terms of blocking autophagosome degradation in HepG2, was found peaked at 10 nM, beyond which no further accumulation of LC3 II was noted, which matched with the earlier reports.^32,37,38 […]

On to `C[C@H](CC[C@@]1(O)O[C@H]2C[C@H]3[C@@H]4CC[C@H]5C[C@@H](O[C@@H]6O[C@H](CO)[C@H](O[C@@H]7O[C@H](CO)[C@@H](O)[C@H](O[C@@H]8OC[C@@H](O)[C@H](O)[C@H]8O)[C@H]7O[C@@H]7O[C@H](CO)[C@@H](O)[C@H](O)[C@H]7O)[C@H](O)[C@H]6O)CC[C@]5(C)[C@H]4CC[C@]3(C)[C@H]2[C@@H]1C)CO[C@@H]1O[C@H](CO)[C@@H](O)[C@H](O)[C@H]1O` [Uttroside B], for which, in test [1], the GFP-RFP-LC3 puncta result was “increase in amount of yellow puncta and red puncta”. Besides, the “LC3II on co-treatment with Bafilomycin” value in test [2] was “surplus accumulation of LC3II”.

The values above are taken from patent US11607422B2, “Uttroside B and derivatives thereof as therapeutics for hepatocellular carcinoma” (Rajiv Gandhi Centre for Biotechnology, an Autonomous …, priority 2016, dated 2023).
